The values that follow come from US11149031B2, “Substituted N-(3-fluoropropyl)-pyrrolidine compounds, processes for their preparation and therapeutic uses thereof” (SANOFI, priority 2016, dated 2021).

Experiment [1] deals with His6-ERα298-554 WT (ERα ligand-binding domain) (Homo sapiens (Human), UniProt P03372). Description: Test A: biochemical antagonist activity, LanthaScreen TR-FRET ERα coactivator assay, WT. As to conditions: read-out: Antagonism WT IC50. An outline of the steps:
(§1)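 IC50 values come from a 4-parameter logistic fit of the 520:495 nm TR-FRET ratio after overnight room-temperature incubation. The mix held 0.5 nM ERα 298–554 LBD, Tb-labelled anti-His6 antibody, 250 nM PGC1a peptide and 3 nM or 10 nM estradiol, pH 7.4 phosphate buffer with DTT.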
(In general: Time-resolved FRET reads energy transfer from a long-lived donor to a nearby acceptor.)

The subject of experiment [2] is MCF7 cells (breast tumor cells) WT. The experiment is described as follows: Test B: cell proliferation/viability assay (CellTiter-Glo) on MCF7 WT. As to conditions: Homo sapiens, MCF7, 168 h, 7 days of compound exposure. The format is cell-based. An outline of the steps:
(§2)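 CellTiter-Glo luminescence after 7-day exposure; % viability = background-corrected RLU of sample relative to untreated. MCF7 WT or ER Tyr 537 Ser/Asp 538 Gly mutant-dependent lines, phenol red-free MEM, 5% charcoal-stripped FBS; 3-0.000001 μM, 9 points.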
In general terms: In ATP-based viability assays light output follows the ATP content of the culture.

Experiment [3] concerns MCF7 cells expressing mutant estrogen receptor Asp 538 Gly. Description: Test B: cell proliferation/viability assay (CellTiter-Glo) on MCF7 Asp 538 Gly mutant. As to conditions: Homo sapiens, MCF7, 168 h, MCF7 cells expressing ER Asp 538 Gly mutant, 7 days of compound exposure, read-out: proliferation MCF7 D538G IC50. It counts as cell-based. Put shortly:
as §2

Experiment [4] has as its target His6-ERα298-554 D538G mutant (ERα ligand-binding domain) (Homo sapiens (Human), UniProt P03372, D538G). Description: Test A: biochemical antagonist activity, LanthaScreen TR-FRET ERα coactivator assay, D538G mutant. Particulars: read-out: Antagonism D538G IC50. Put shortly: as §1
Experiment [5] concerns the target His6-ERα298-554 Y537S mutant (ERα ligand-binding domain) (Homo sapiens (Human), UniProt P03372, Y537S). Description: Test A: biochemical antagonist activity, LanthaScreen TR-FRET ERα coactivator assay, Y537S mutant. Particulars: read-out: Antagonism Y537S IC50. An outline of the steps: as §1
Experiment [6] addresses ERα in MCF7 cells (Homo sapiens (Human), UniProt P03372). The experiment is described as follows: Test C: estrogen receptor degradation activity, ERα in cell western assay in MCF7 cells. The format is cell-based. Particulars: for DC50: 4 hours post compound addition, ERα in cell western, read-out: Degradation IC50; for % Degradation at 3 μM: 4 hours, relative to fulvestrant. Put shortly: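 In-cell western, MCF7, 4 h compound exposure, 3–0.000018 μM final, 9 points, 1:5 steps. Formalin/Triton fix, anti-ER rabbit mAb overnight cold, Alexa 488 secondary plus 2 μM Syto-64. Green intensity = ERα, red = DNA; no-primary wells as background.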

The test system of experiment [7] is MCF7 cells expressing mutant estrogen receptor Tyr 537 Ser. The experiment is described as follows: Test B: cell proliferation/viability assay (CellTiter-Glo) on MCF7 Tyr 537 Ser mutant. It counts as cell-based. Particulars: Homo sapiens, MCF7, 168 h, MCF7 cells expressing ER Tyr 537 Ser mutant, 7 days of compound exposure, read-out: proliferation MCF7 Y537S IC50. Put shortly:
as §2

The mark [8] stands for this setting: asterisk (*): protocol using 10 nM estradiol.

Molecules are shown by their SMILES. Read-outs that look alike come from different tables or passages of the source.

Sequence of His6-ERα298-554 Y537S mutant (ERα ligand-binding domain) (P03372 298-554 Y537S): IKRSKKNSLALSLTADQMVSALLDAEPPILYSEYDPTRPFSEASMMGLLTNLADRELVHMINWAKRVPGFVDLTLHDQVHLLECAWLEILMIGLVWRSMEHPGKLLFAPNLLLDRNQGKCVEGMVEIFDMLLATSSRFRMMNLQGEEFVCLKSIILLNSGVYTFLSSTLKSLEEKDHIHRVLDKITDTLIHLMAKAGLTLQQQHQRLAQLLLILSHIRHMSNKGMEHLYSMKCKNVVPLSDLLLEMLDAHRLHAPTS
Sequence of His6-ERα298-554 D538G mutant (ERα ligand-binding domain) (P03372 298-554 D538G): as the sequence (P03372 298-554 Y537S) above, with S240Y, D241G counted along it
Sequence of ERα in MCF7 cells (P03372 whole entry): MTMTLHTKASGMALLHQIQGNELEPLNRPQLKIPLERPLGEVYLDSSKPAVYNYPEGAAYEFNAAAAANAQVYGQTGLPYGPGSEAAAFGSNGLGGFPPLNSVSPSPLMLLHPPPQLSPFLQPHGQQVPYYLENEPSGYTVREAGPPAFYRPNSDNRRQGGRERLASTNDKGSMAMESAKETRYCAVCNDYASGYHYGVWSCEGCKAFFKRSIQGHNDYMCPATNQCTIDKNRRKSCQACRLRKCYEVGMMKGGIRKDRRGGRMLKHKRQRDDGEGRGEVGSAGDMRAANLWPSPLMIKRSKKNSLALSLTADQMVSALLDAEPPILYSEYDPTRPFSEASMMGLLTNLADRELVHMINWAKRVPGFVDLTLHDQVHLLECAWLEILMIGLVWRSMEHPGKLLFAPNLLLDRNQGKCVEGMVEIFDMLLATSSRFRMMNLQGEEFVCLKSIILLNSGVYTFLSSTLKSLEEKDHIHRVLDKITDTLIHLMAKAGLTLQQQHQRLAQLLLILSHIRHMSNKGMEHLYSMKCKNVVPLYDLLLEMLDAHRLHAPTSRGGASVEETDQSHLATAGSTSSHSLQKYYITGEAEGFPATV
Sequence of His6-ERα298-554 WT (ERα ligand-binding domain) (P03372 298-554): as the sequence (P03372 298-554 Y537S) above, with S240Y counted along it

`Oc1ccc2c(c1)SCCC(c1ccc3c(c1)OC(F)(F)O3)=C2c1ccc(O[C@H]2CCN(CCCF)C2)cc1` [Example 193, 4-(2,2-difluoro-1,3-benzodioxol-5-yl)-5-[4-[(3S)-1-(3-fluoropropyl)pyrrolidin-3-yl]oxyphenyl]-2,3-dihydro-1-benzothiepin-8-ol]: the IC50 in experiment [1] (setting [8]) worked out at 1 nM; in experiment [2], 0.3 nM; in experiment [3], 0.5 nM; in experiment [4] (setting [8]), 25 nM; in experiment [5] (setting [8]), 20 nM; in experiment [7], 5 nM. Further, in experiment [6], the DC50 is 0.2 nM. In addition, the “% Degradation at 3 μM” value in experiment [6] came out at 91%.

Regarding `CS(=O)(=O)c1ccc(C2=C(c3ccc(O[C@H]4CCN(CCCF)C4)cc3)c3ccc(O)cc3SCC2)cc1` [Example 194, 5-[4-[(3S)-1-(3-fluoropropyl)pyrrolidin-3-yl]oxyphenyl]-4-(4-methylsulfonylphenyl)-2,3-dihydro-1-benzothiepin-8-ol], the IC50 in experiment [1] (setting [8]) was determined as 10 nM; in experiment [2], 0.2 nM; in experiment [3] it was 0.4 nM; in experiment [4] (setting [8]), 206 nM; in experiment [5] (setting [8]) it was 141 nM; in experiment [7] it was 3 nM. In addition, the DC50 in experiment [6] was 0.2 nM. The “% Degradation at 3 μM” value in experiment [6] is 89%.

Take `CCOc1cc(C2=C(c3ccc(O[C@H]4CCN(CCCF)C4)cc3)c3ccc(O)cc3SCC2)ccc1F` [Example 195, 4-(3-ethoxy-4-fluoro-phenyl)-5-[4-[(3S)-1-(3-fluoropropyl)pyrrolidin-3-yl]oxyphenyl]-2,3-dihydro-1-benzothiepin-8-ol]: the IC50 in experiment [1] (setting [8]) worked out at 14 nM; in experiment [2] it was 0.3 nM; in experiment [3], 0.7 nM; in experiment [4] (setting [8]) it was 335 nM; in experiment [5] (setting [8]), 170 nM; in experiment [7], 3 nM. Besides, the DC50 in experiment [6] turned out to be 0.4 nM. For the same compound, the “% Degradation at 3 μM” value in experiment [6] came to 97%.

Take `CCOc1ccc(C2=C(c3ccc(O[C@H]4CCN(CCCF)C4)cc3)c3ccc(O)cc3SCC2)c(F)c1` [Example 196, 4-(4-ethoxy-2-fluoro-phenyl)-5-[4-[(3S)-1-(3-fluoropropyl)pyrrolidin-3-yl]oxyphenyl]-2,3-dihydro-1-benzothiepin-8-ol]: the IC50 in experiment [1] (setting [8]) was 3 nM; in experiment [2] it was 0.4 nM; in experiment [3] it was 1 nM; in experiment [4] (setting [8]) it was 63 nM; in experiment [5] (setting [8]), 36 nM; in experiment [7] it was 6 nM. For the same compound, the DC50 in experiment [6] stood at 0.3 nM. The “% Degradation at 3 μM” value in experiment [6] is reported as 93%.

In the case of `CC1Cc2cc(C3=C(c4ccc(O[C@H]5CCN(CCCF)C5)cc4)c4ccc(O)cc4SCC3)ccc2O1` (stereo partly drawn) [Example 197, 5-[4-[(3S)-1-(3-fluoropropyl)pyrrolidin-3-yl]oxyphenyl]-4-(2-methyl-2,3-dihydrobenzofuran-5-yl)-2,3-dihydro-1-benzothiepin-8-ol], the IC50 is 1 nM in experiment [1] (setting [8]); 0.3 nM in experiment [2]; 0.6 nM in experiment [3]; 20 nM in experiment [4] (setting [8]); 13 nM in experiment [5] (setting [8]); 5 nM in experiment [7]. The DC50 in experiment [6] came out at 0.2 nM. Besides, the “% Degradation at 3 μM” value in experiment [6] was 88%.

As for `CC1(C)Cc2cc(C3=C(c4ccc(O[C@H]5CCN(CCCF)C5)cc4)c4ccc(O)cc4SCC3)ccc2N1` [Example 198, 4-(2,2-dimethylindolin-5-yl)-5-[4-[(3S)-1-(3-fluoropropyl)pyrrolidin-3-yl]oxyphenyl]-2,3-dihydro-1-benzothiepin-8-ol], the IC50 in experiment [1] (protocol with 3 nM estradiol) was found to be 1 nM; in experiment [2] it was 0.4 nM; in experiment [3], 1 nM; in experiment [4] (protocol with 3 nM estradiol) it was 8 nM; in experiment [5] (protocol with 3 nM estradiol), 6 nM; in experiment [7] it was 6 nM. Besides, the DC50 in experiment [6] stood at 0.2 nM. In experiment [6], the “% Degradation at 3 μM” value amounted to 87%.
